Measured values as given in patent publication US7485647B2, “2-aminoquinoline derivatives” (Banyu Pharmaceutical Co., Ltd., priority 2003, dated 2009).

Biological target: T1, human MCH-1R (Homo sapiens, UniProt Q99705)
T1 construct: expressed in transfected cells; host or cells: CHO-K1 (American Type Culture Collection)
Assay: MCH binding inhibition test
Settings: membranes of MCH-1R expressing CHO-K1 cells, 50 pM [125I]MCH, 25° C., one hour; read-out: IC50 (50% inhibition concentration to specific [125I]MCH binding)
Experimental: A human MCH-1R encoding cDNA sequence [FEBS Letters, Vol. 398, p. 253 (1996); Biochimica et Biophisica Acta, Vol. 1401, p. 216 (1998)] was cloned to plasmid vector pEF/mic/cyto (Invitrogen Corporation). The obtained expression vector was transfected to a host cell CHO-K1 (American Type Culture Collection) using lipofectamine plus reagent (Life Technology Inc.) to provide MCH-1R expression cells.
Membrane samples prepared from the MCH-1R expression cells were incubated with each test compound and 50 pM of [^125I]MCH (NEN Co.), in an assay buffer (50 mM Tris buffer comprising 10 mM magnesium chloride, 2 mM ethylenediamine tetraacetate, 0.01% bacitracin and 0.2% bovine serum albumin; pH 7.4) at 25° C. for an hour, followed by filtration through Glass Filter GF/C (Wattman Co.). After washing the glass filter with 50 mM Tris buffer (pH7.4) comprising 10 mM magnesium chloride, 2 mM ethylenediamine tetraacetate and 0.04% Tween-20, radio activity on the glass filter was measured. Non-specific binding was measured in the presence of 1 μM human MCH and 50% inhibition concentration (IC50 value) of each test compound to specific [^125I] MCH binding was determined.

T1 sequence (Q99705 whole entry): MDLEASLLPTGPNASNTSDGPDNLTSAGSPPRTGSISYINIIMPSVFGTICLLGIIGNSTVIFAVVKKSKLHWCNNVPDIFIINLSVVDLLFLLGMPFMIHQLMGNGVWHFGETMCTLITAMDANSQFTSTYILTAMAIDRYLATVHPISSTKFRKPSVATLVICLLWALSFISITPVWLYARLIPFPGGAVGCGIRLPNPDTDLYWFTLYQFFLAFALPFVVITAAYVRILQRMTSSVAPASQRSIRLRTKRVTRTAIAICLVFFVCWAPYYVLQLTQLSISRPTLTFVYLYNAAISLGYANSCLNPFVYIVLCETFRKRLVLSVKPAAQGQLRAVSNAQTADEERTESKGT

| Structure (SMILES) | IC50 |
| --- | --- |
| CN1C(=O)CCC12CCN(c1ccc3cc(NC(=O)c4ncc(-c5ccc(F)cc5)cn4)ccc3n1)C2 (stereo not drawn) [Example 1, 5-(4-Fluorophenyl)-N-[2-(1-methyl-2-oxo-1,7-diazaspiro[4,4]-nonan-7-yl)-6-quinolinyl]-2-pyrimidinecarboxamide] | 8 nM |
| CC(C)C(=O)N(C)[C@@H]1CCN(c2ccc3cc(NC(=O)c4ncc(-c5ccccc5)cn4)ccc3n2)C1 [Example 3, N-(2-[(3R)-3-[isobutyryl(methyl)amino]-1-pyrrolidinyl]-6-quinolinyl)-5-phenyl-2-pyrimidinecarboxamide] | 4.1 nM |
| CN(C)C(=O)N(C)[C@@H]1CCN(c2ccc3cc(NC(=O)c4ncc(-c5ccccc5)cn4)ccc3n2)C1 [Example 9, N-(2-[(3R)-3-[[(dimethylamino)carbonyl](methyl)amino]-1-pyrrolidinyl]-6-quinolinyl)-5-phenyl-2-pyrimidinecarboxamide] | 3.7 nM |
